Measurements taken from patent US20240150356A1, “Pyrimidine amide compounds and use thereof” (ALPHALA CO., LTD., priority 2019, published 2024).

Assays:
Format in all cases: cell-based
[1] = system: Hep3B cells (hepatocellular carcinoma cell line); assay: In vitro MTS cell viability assay (NCI-60 methodology), Hep3B; settings: Homo sapiens, 48 h, Table 6, MTS, 2 days drug incubation, 50% reduction vs time zero, read-out: Hep3B LC50
Method in brief: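 Hep3B cells given five 2-fold dilutions of compound for 2 days, with viability by MTS measured at time zero and at end. LC50 is the concentration giving a 50% fall in viable cells relative to the start of treatment, per NCI-60 formula.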

[2] = system: NCI-H460 (human lung cancer cell line); assay: In vitro MTS cell viability assay (NCI-60 methodology), NCI-H460; settings: NCI-H460 cells, read-out: NCI-H460 LC50
Method in brief: (§1)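 NCI-60 style: compound added 24 h post-plating at five 2-fold dilutions plus DMSO control, then 2 days' incubation, MTS read-out. Time-zero plate gives Tz; LC50 is the concentration where [(Ti−Tz)/Tz]×100=−50.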

[3] = system: SW480 (colon adenocarcinoma cell line); assay: In vitro MTS cell viability assay (NCI-60 methodology), SW480; settings: Homo sapiens, SW480 cells, read-out: SW480 LC50
Method in brief: as §1

For `O=C(Nc1nc(-c2ccc(Cl)cc2F)nc2c1cnn2-c1ccc(F)cc1)c1ccc([N+](=O)[O-])s1` [Compound 6-128, N-(6-(4-chloro-2-fluorophenyl)-1-(4-fluorophenyl)-1H-pyrazolo[3,4,d]pyrimidin-4-yl)-5-nitrothiophene-2-carboxamide], the LC50 [1] was 0.07 µM, the CC50 [2] was 0.31 µM and the CC50 [3] was 0.57 µM.
